From ChEMBL document CHEMBL1137032, “Nonpeptide alpha V beta 3 antagonists. Part 10: In vitro and in vivo evaluation of a potent 7-methyl substituted tetrahydro-[1,8]naphthyridine derivative” (Bioorg Med Chem Lett, 2004)
Values joined by “and” are separate entries in the source; they are usually repeats but may differ in a detail not shown here. Identical values can stand only once.

Tests used:
[1] = Human plasma binding affinity was determined; assay type: ADME, cell-free; details: read-out: PB (converted)
[2] = Partition coefficient (logP); assay type: physicochemical; details: octanol/water
[3] = target: Integrin alpha-V/beta-3 (Homo sapiens) (UniProt P05106+P06756); test: In vitro binding affinity against integrin Alpha-v Beta3 receptor in SPA assay; assay type: protein-complex assay
[4] = Clearance value in rat; assay type: ADME, organism-based; details: in vivo
[5] = Clearance value in rhesus monkey; assay type: ADME, organism-based; details: cercopithecidae, in vivo
[6] = Clearance value in dog; assay type: ADME, organism-based, Canis lupus familiaris; details: in vivo
[7] = Effect was measured in male rats on distal femoral metaphysis bone mineral density; assay type: ADME; details: rat
[8] = Bioavailability in rhesus monkey; assay type: ADME, organism-based; details: in vivo
[9] = Half life in dog; assay type: ADME, Canis lupus familiaris; details: in vivo
[10] = Plasma clearance in dog; assay type: ADME, organism-based, Canis lupus familiaris; details: in vivo
[11] = Bioavailability in dog; assay type: ADME, organism-based, Canis lupus familiaris; details: in vivo
[12] = Plasma clearance in rat; assay type: ADME, organism-based; details: in vivo
[13] = Bioavailability in rhesus Monkey; assay type: ADME, organism-based, Macaca mulatta; details: in vivo
[14] = Bioavailability in rat; assay type: ADME, organism-based; details: in vivo
[15] = Plasma clearance in rhesus monkey; assay type: ADME, organism-based; details: cercopithecidae, in vivo

SMILES | fraction unbound [1] | logP [2] | SPAV3 [3] [nM] | clearance [4] [mL/min/kg] | clearance [5] [mL/min/kg] | clearance [6] [mL/min/kg] | DFMBMD [7] | bioavailability [8] [%] | half-life [9] [h] | clearance [10] [mL/min/kg] | bioavailability [11] [%] | clearance [12] [mL/min/kg] | bioavailability [13] [%] | bioavailability [14] [%] | clearance [15] [mL/min/kg]
COc1ccc([C@H](CC(=O)O)N2CCN(CCCc3ccc4c(n3)N[C@H](C)CC4)C2=O)cn1 | 0.08 | 0.56 | 0.11 | – | – | – | – | – | – | – | – | – | – | – | –
COc1ccc([C@H](CC(=O)O)N2CCN(CCCc3ccc4c(n3)NCCC4)C2=O)cn1 | 0.12 | – | 0.08 | 47 | 9 | 6.4 | 133 mg/Ecm and 145 mg/Ecm and 157.2 mg/Ecm | 74 | – | – | – | – | – | – | –
COc1ccc([C@H](CC(=O)O)N2CCN(CCCc3nc4c(cc3C)CCCN4)C2=O)cn1 | 0.22 | 0.62 | 0.13 | – | – | – | – | – | 2.2 | 18 | 55 | – | – | – | –
COc1ccc([C@H](CC(=O)O)N2CCN(CCCc3ccc4c(n3)N[C@@H](C)CC4)C2=O)cn1 | 0.05 | 0.69 | 0.11 | – | – | – | 137 mg/Ecm and 147.9 mg/Ecm and 161 mg/Ecm and 141.1 mg/Ecm and 156.6 mg/Ecm | – | – | 1.7 | 83 | 41 | 75 | 50 | 3.5
